Assay results published in patent EP0936918B1, “COMBINATION THERAPY FOR TREATMENT OF ARTHRITIC DISEASES” (BRITISH BIOTECH PHARMACEUTICALS LIMITED, priority 1996, dated 1998).
One block for each compound: values may come before it.

Legend:
[1] = tested on: adjuvant-induced arthritis; experiment: Rat adjuvant-induced arthritis model; format: in vivo, male Lewis rat
Method: Mean of 10 readings was recorded.
Drugs were formulated fresh for each administration.

[2] = Ex vivo bioassay of blood concentration after oral administration (fibroblast collagenase / 14C collagen read-out); parameters: species or system male Lewis rats; conditions: 10mg/kg oral, suspension in PBS/Tween, with versus without CyA (0.3mg/kg); 0.5 to 24 hrs, n=6
Method: Compound 1(10mg/kg)±CyA (0.3mg/kg) [in PBS/0.01% Tween 80™] was administered to healthy male Lewis rats (as above). Blood samples (0.5ml into a syringe containing 0.1 ml acid citrate dextroset as anticoagulant) were removed from the ventro-lateral tail vein of the halothane anaestetised rat at t= prebleed, 0.5, 1, 2, 6 and 24 hrs. 3mls methanol was added to each blood sample, mixed and centrifuged at 3000 r.p.m. for 15 minutes (using Beckman GPKR centrifuge). 2.0ml of the methanol supematant was removed and evaporated dry. The pellet was redisolved in 200µl DMSO (dimethylsulphoxide). An aliquot of the solubilised pellet was assayed against fibroblast collagenase using ^14C collagen as substrate, as follows: 15µl fibroblast collagenase at suitable dilution. 100µl collagenase assay buffer* 10µl solubilised pellet 75µl ddH2O 100µl ^14C collagen † Acid citrate dextrose, pH4.5 (13.65g citric acid, 25g tri-sodium citrate & 20g d-glucose per litre of water) * (50mM Tris (pH 7.4), 5mM CaCl2, 0.05% Brij, 0.02% NaN3)
Samples were incubated overnight at 37°C and undigested substrate removed by centrifugation at 11,600 r.p.m. for 15 mins (using Heraeus Biofuge 15). […]
A calibration curve for the test compound of interest was run alongside the blood samples. The concentration of the test compound in the blood was then calculated from the calibration curve.

[3] = Twentyman 1992; cited from earlier work

Compound: CNC(=O)[C@H](Cc1ccccc1)NC(=O)[C@H](CC(C)C)[C@H](CSc1cccs1)C(=O)NO [Compound 2, [4-(N-Hydroxyamino)-2R-isobutyl-3S-(thiophenylthiomethyl)succinyl]-L-phenylalanine-N-methylamide]
synergy with cyclosporin A ([1]; Compound 2 at 5mg/kg ip, bid, with cyclosporin A at 0.3mg/kg ip): act in synergy

blood concentration of Compound 1 [2]: equivalent
Compound: C=CC[C@H](C(=O)NO)[C@@H](CC(C)C)C(=O)N[C@H](C(=O)NC)C(C)(C)C [Compound 1, 3R-(2,2-Dimethyl-1S-methylcarbamoyl-propylcarbamoyl)-5-methyl-2S-2-propenyl-hexanohydroxamic acid]
reducing the paw volume (swelling) ([1]; Compound 1 at doses at or below 10mg/kg, po, bid (data not shown)): ineffective
effect on arthritis ([1]; given alone, po, bid: Compound 1 (10mg/ml), Cyclosporin A (0.3mg/ml)): very little or no effect

Compound: C/C=C/C[C@@H](C)C(=O)[C@H]1C(=O)N[C@@H](C(C)C)C(=O)N(C)CC(=O)N(C)[C@@H](CC(C)C)C(=O)N[C@@H](C(C)C)C(=O)N(C)[C@@H](CC(C)C)C(=O)N[C@@H](C)C(=O)N[C@H](C)C(=O)N(C)[C@@H](CC(C)C)C(=O)N(C)[C@@H](CC(C)C)C(=O)N(C)[C@@H](C(C)C)C(=O)N1C [PSC-833]
potency relative to CyA [3]: approximately 10 fold
